Columns and labels:
rats = experiment: Porsolt helplessness test; assay type: in vivo, rat
white Wistar rats = experiment: transport stress simulation test (shaker, 240 min); assay type: in vivo, rat; design: AST in blood serum / ALT in blood serum / Creatinine in blood serum: unit not given here
Description: The anti-stress, anxiolytic and antidepressant effects of the claimed agent and compositions on its basis were determined as follows. […] The suspension test. Five animals from each group were used. Each animal was suspended for 24 hours. After that the sample of whole blood was taken from the sublingual vessels of that animal Then the animal was placed in a desiccator with diethyl ether. 60 minutes later a spinal decapitation of the animal was performed. The abdominal opening was performed and the number of ulcers on the inner surface of the stomach was counted. The obtained whole blood was placed in two test tubes. The whole blood was used to determine the number of eosinophils by the Duncker method. Serum was used to determine the biochemical composition of the blood. Adrenaline and norepinephrine were determined as biochemical indices. These characteristics are specific markers identifying the impact of stress factors of various etiologies. • 2. The transport stress simulation test. Five animals from each group were used. The animals were placed in cages fixed on a laboratory shutter. The duration of the test was 240 minutes. At the end of the test the animals were examined by the techniques described in paragraph 1. A sample of whole blood was taken to determine the number of eosinophils by the Duncker method. The blood serum was studied to measure the amount of enzymes: alanine aminotransferase (ALT), aspartate aminotransferase (AST), creatinine
The tests were carried out on 2-month-old rats of the Wistar line. The groups were selected according to the principle of paired counterparts.
During the course of the study the animals were selected from the formed groups of 10 animals each to participate in stress tests, 5 animals per test. The selection was made on the 7th, 14th, 21st day of the drug administration (experiments were performed on the same days right after selection). The animals were weighed weekly immediately before testing. The obtained data were processed by statistical methods of mathematical statistics. […] Water for injection produced by the “Bufus Novosibkhimpharm” was used as a solvent. The introduced volume was 1.5 ml. The solution was introduced at the same tine 2 hours after morning feeding. The first group was given water for injection by the same way. The volume of administration was 1.5 ml.
The rotating universal Shaker Unimax 10 was used as a model for simulating transport stress. The rotation speed was chosen at 120 rpm for 240 min A cage with five animals was fixed on the site. The rats stayed in the cage in a free state. A change in the reaction of animals with prolonged administration of the drug was observed. The sampling and decapitation process is described in Example 1.
Physiological, morphological and biochemical blood parametres were determined as markers of the impact of stress on animals, such as: individual and group behavior of animals, the number of enuresis acts, the number of defecation acts, and the number of excrement boluses; eosinophils in whole blood according to Duncker and the levels of ALT, AST enzymes and creatinine in the blood serum were measured.
Transport stress is a striking example of technological effect on animal and human body. […] Thus, it suits best as an indicator for the observation of the classical example of the development of the adaptive syndrome by Selye. In the experiment, a simulation of the transport impact on the rats was performed with the help of the laboratory shutter. Progressive 4 hour-long circular vibrations adversely affected the animals. The rats in the control group were constantly moving, colliding with each other trying to concentrate in the corners, where the amplitude of the oscillation was the highest. At the same time the number of defecation acts was higher. The animals behaved aggressively. The stronger ones tried to push out a weaker animal out of the corner.

[1] = 7 days after the dosing, LiAsc, LiCa 5 mg/kg, phenazepam 0.25 mg
[2] = 7 days after the drug withdrawal, 5 mg/kg
[3] = 28 days after the dosing, LiAsc, LiCa 5 mg/kg, phenazepam 0.25 mg
[4] = 28 days after the drug withdrawal, 5 mg/kg
[5] = 30 mg/kg solution by gastric tube, administration day 7
[6] = 30 mg/kg solution by gastric tube, administration day 14
[7] = 30 mg/kg solution by gastric tube, administration day 21
[8] = 60 mg/kg in the form of pills with cocoa, administration day 7
[9] = 60 mg/kg in the form of pills with cocoa, administration day 14
[10] = 60 mg/kg in the form of pills with cocoa, administration day 21
[11] = 60 mg/kg solution by gastric tube, administration day 7
[12] = 60 mg/kg solution by gastric tube, administration day 14
[13] = 60 mg/kg solution by gastric tube, administration day 21
[14] = 120 mg/kg solution by gastric tube, administration day 7
[15] = 120 mg/kg solution by gastric tube, administration day 14
[16] = 120 mg/kg solution by gastric tube, administration day 21

## O=C1O[C@H]([C@@H](O)CO)C([O-])=C1O.[Li+] [lithium ascorbate]
rats; [1]
  Adrenalin: 7.4 ± 1.4 µg/L
  Duration of activity: 356.4 ± 26.1 s
  Duration of immobility: 243.6 ± 17.6 s
  Eosinophils (Dunger method) in mm^3: 783.2 ± 24.7 in mm^3
  Noradrenalin: 19.9 ± 0.9 µg/L
  Number of gastric ulcers: 1.5 ± 0.6
rats; [2]
  Adrenalin: 8.4 ± 0.9 µg/L
  Duration of activity: 472.6 ± 29.3 s
  Duration of immobility: 127.3 ± 19.7 s
  Eosinophils (Dunger method) in mm^3: 923.5 ± 64.2 in mm^3
  Noradrenalin: 18.3 ± 3.2 µg/L
  Number of gastric ulcers: 1.6 ± 0.9
rats; [3]
  Adrenalin: 6.1 ± 0.6 µg/L
  Duration of activity: 506.4 ± 31.4 s
  Duration of immobility: 93.0 ± 19.3 s
  Eosinophils (Dunger method) in mm^3: 987.3 ± 34.8 in mm^3
  Noradrenalin: 15.6 ± 0.79 µg/L
  Number of gastric ulcers: 0.8 ± 0.2
rats; [4]
  Adrenalin: 20.3 ± 9.3 µg/L
  Duration of activity: 221.1 ± 19.8 s
  Duration of immobility: 377.9 ± 86.4 s
  Eosinophils (Dunger method) in mm^3: 409.7 ± 37.9 in mm^3
  Noradrenalin: 38.9 ± 10.9 µg/L
  Number of gastric ulcers: 5.9 ± 0.4
White Wistar rats; [5]
  ALT in blood serum: 29.8 ± 8.45
  AST in blood serum: 91.7 ± 7.29
  Creatinine in blood serum: 36.5 ± 3.84
  Eosinophil count in whole blood: 794 ± 6.9
  Number of boluses in defecation: 4.2 ± 0.4
White Wistar rats; [6]
  ALT in blood serum: 32.1 ± 9.10
  AST in blood serum: 109.9 ± 9.67
  Creatinine in blood serum: 48.1 ± 3.82
  Eosinophil count in whole blood: 921 ± 9.1
  Number of boluses in defecation: 3.9 ± 0.4
White Wistar rats; [7]
  ALT in blood serum: 31.7 ± 3.14
  AST in blood serum: 121.2 ± 7.21
  Creatinine in blood serum: 46.3 ± 3.26
  Eosinophil count in whole blood: 928 ± 10.7
  Number of boluses in defecation: 3.5 ± 0.3
White Wistar rats; [8]
  ALT in blood serum: 22.7 ± 8.19
  AST in blood serum: 68.8 ± 4.72
  Creatinine in blood serum: 25.7 ± 4.30
  Eosinophil count in whole blood: 528 ± 5.8
  Number of boluses in defecation: 7.2 ± 1.5
White Wistar rats; [9]
  ALT in blood serum: 34.8 ± 6.83
  AST in blood serum: 119.7 ± 6.21
  Creatinine in blood serum: 56.7 ± 6.44
  Eosinophil count in whole blood: 938 ± 11.7
  Number of boluses in defecation: 5.2 ± 0.9
White Wistar rats; [10]
  ALT in blood serum: 35.0 ± 4.29
  AST in blood serum: 121. ± 4.29
  Creatinine in blood serum: 58.4 ± 9.30
  Eosinophil count in whole blood: 947 ± 12.4
  Number of boluses in defecation: 3.7 ± 0.3
White Wistar rats; [11]
  ALT in blood serum: 31.0 ± 3.15
  AST in blood serum: 97.9 ± 5.04
  Creatinine in blood serum: 39.6 ± 7.98
  Eosinophil count in whole blood: 822 ± 8.7
  Number of boluses in defecation: 4.6 ± 0.4
White Wistar rats; [12]
  ALT in blood serum: 33.1 ± 2.84
  AST in blood serum: 112.4 ± 6.23
  Creatinine in blood serum: 48.3 ± 8.27
  Eosinophil count in whole blood: 919 ± 4.1
  Number of boluses in defecation: 3.9 ± 0.4
White Wistar rats; [13]
  ALT in blood serum: 32.4 ± 6.37
  AST in blood serum: 115.5 ± 8.97
  Creatinine in blood serum: 45.6 ± 2.73
  Eosinophil count in whole blood: 922 ± 9.3
  Number of boluses in defecation: 3.7 ± 0.7
White Wistar rats; [14]
  ALT in blood serum: 32.4 ± 7.75
  AST in blood serum: 107.1 ± 6.20
  Creatinine in blood serum: 39.8 ± 6.13
  Eosinophil count in whole blood: 856 ± 4.2
  Number of boluses in defecation: 5.0 ± 1.1
White Wistar rats; [15]
  ALT in blood serum: 31.7 ± 7.32
  AST in blood serum: 110.3 ± 7.41
  Creatinine in blood serum: 47.8 ± 1.46
  Eosinophil count in whole blood: 901 ± 16.8
  Number of boluses in defecation: 4.1 ± 1.1
White Wistar rats; [16]
  ALT in blood serum: 30.1 ± 7.42
  AST in blood serum: 118.7 ± 4.48
  Creatinine in blood serum: 42.1 ± 2.97
  Eosinophil count in whole blood: 907 ± 4.3
  Number of boluses in defecation: 4.0 ± 1.0

Source: patent US10849878B2 (OBSHCHESTVO S OGRANICHENNOY OTVETSTVENNOSTYU “NORMOFARM”, priority 2015, dated 2020)
